Results taken from US4959368A, “Therapeutic agent for neurological diseases” (Mitsui Petrochemical Industries Ltd., priority 1986, dated 1990).

Assays:
[1] = Acute toxicity, mouse; format: in vivo; conditions: in vivo, po, Table 6, p.o., read-out: Presumed LD50
Procedure: (§1) The acute toxicity of the compounds of the invention was examined by the following method.
(§2) Male ddy-strain 5-week old mice and male Wistar-strain 8 week old rats, five per group, were used as experimental animals. Each of the compounds was dissolved in saline and administered perorally, and the toxicity of the compound was assessed 24 hours after the administration.

[2] = tested on: mice; experiment: Acute toxicity, mouse; format: in vivo; conditions: 24 hours
Procedure: as §1, §2

[3] = tested on: rats with crushed sciatic nerves; experiment: Curative effect on rats with crushed sciatic nerves; format: in vivo, rat (male Wistar)
Procedure: Curative effect on rats with crushed sciatic nerves:
The curing effect of the compound (I) of the invention was tested on rats having crushed scietic nerves as a model of peripheral nervous disorder using (1) a change in the action of the hind paw with the crushed sciatic nerves and (2) a change in the weight of the muscle as an index of the course of degeneration and regeneartion of peripheral nerves.
In the experiment, male Wistar rats (6 weeks old), seven per group, were used. The sciatic nerves were crushed by a method similar to the method of Yamatsu et al. (see Kiyomi Yamatsu, Takenori Kaneko, Akifumi Kitahara and Isao Ohkawa, Journal of Japanese Pharmacological Society, 72, 259-268 (1976) and the method of Hasegawa et al. (see Kazuo Hasegawa, Naoji Mikuni and Yutaka Sakai, Journal of Japanese Pharmacological Society, 74, 721-734 (1978). Specifically, under anesthesia with pentobarbital (40 mg/kg, i.p.), the left side sciatic nerve was exposed at the femur and that site of the exposed scietic nerve which was 5 mm to the center from the branched part between the N. tibialis and the N. suralis was crushed using a modified artery, klomme, having a width of 2 mm and a gap of 0.1 mm. After the operation, the rats were assigned to the test groups at random.
Compound No. 408 was selected as the compound (I) of the invention and intraperitoneally administered to the rats once a day from the day of operation to the 22nd day. A group to which mecobalamin (made by Gedeon Richter Ltd.) was administered and a group to which 0.9% saline was administered were used as controls. The following items were measured with the lapse of time (on the 1st, 4th, 7th, 10th, 14th, 17th, 21st, and 23rd days after the crushing of the scietic nerves).
(1) Change in the action of the side of the hind paw with the crushed scietic nerve:
By a method similar to the method of Hasegawa [Hasegawa, K., Experientia, 34, 750-751 (1978)], the distance between the first and fifth digits of the hind paw was measured.
The ratio of the measured distance to the normal distance was calculated and expressed in percentage (%).
(2) Change in the weight of muscle
It is known that removal of a nerve or its disorder causes atrophy of the muscle which is under its control, and the atrophy is gradually cured by re-control by the nerve. For this reason, a change in the weight of the muscle, which is quantitative, was selected as an index. Twenty-three days after the operation, the soleus muscles of both sides of paws were extracted under anesthesia with pentobarbital, and their weights were measured. The ratio of the weight of the soleus muscle on the crushed side to that of normal side was calculated and expressed in percentage (%).

[4] = tested on: mouse neuroblastoma cell line neuro-2a; experiment: Activity on neuro-2a, cells with outgrown neurites; format: cell-based
Procedure: In order to examine the effects of the test compounds, the following method was also employed.
Mouse neuro 2a cells in the logarithmic growth period in the Dulbecco's modified Eagle's medium (DMEM) containing 10% FCS was seeded in a 48-well plate so that the number of cells was 1,000 cells/well, and cultured for one day in 0.25 ml of the culture fluid in each well. The culture medium was then replaced by a medium containing each of the test compounds and FCS, and the cells were further cultured for 24 hours. Then, a 4% aqueous glutaraldehyde solution in the same amount as the medium (0.25 ml) was added, and the culture fluid was left to stand at room temperature for 2 hours to fix the cells. After washing with water, a 0.05% aqueous solution of methylene blue was added to stain the cells. Under a microscope, the number of cells containing outgrown neurites (cells having at least one neutrite with a length at least two times as large as the long diameter of the cell) was counted visually, and the proportion of these cells in the entire cells was calculated. The well was observed over 5 or more visual fields (at least 2% of the entire surface area of the well) continuous to the left and right from a mark put at the center of the well, and more than 200 cells was counted. One drug compound was used in 6 different concentrations at most, and three runs were conducted for each concentration.

[5] = tested on: human neuroblastoma cell line GOTO; experiment: Activity on neuroblastoma cell line GOTO (cell number, number and length of neurites); format: cell-based; conditions: for Number of cells (mean ± S.E.): control 5.30 ± 0.23
Procedure: (§3) The biological activities in vitro of the compounds of formula (I) on cells of the nervous system were tested. The cells tested were human neuroblastoma cell line GOTO [see Sekiguchi, M., Oota, T., Sakakibara, K., Inui, N. & Fujii, G., Japan. J. Exp. Med., 49, 67-83 (1979)], and neuroblastoma cell line NB-1 [see Miyake, S., Shimo, Y., Kitamura, T., Nojyo, Y., Nakamura, T., Imkashuku, S. and Abe, T., The Autonomic Nervous System, 10, 115-120 (1973)], and mouse neuroblastoma cell line neuro-2a (Dainippon Pharmaceutical Co., Ltd.) which have been established as the cells of the nervous system. The above neuve cells were grown in an incubator at 37° C. in the presence of 5% carbon dioxide gas exponentially, and then cultivated for a certain period of time together with the compounds of formula (I).
The effect of the compounds of this invention on neuroblastoma cells was examined by the following method.
A culture medium [composed of 45% of RPMI 1640 medium, 45% modified Eagle's medium (MEM) and 10% of fetal calf serum (FCS) and containing penicillin G sodium (100 units/ml) and streptomycin sulfate (100 microgram/ml)] containing neurobalstoma cell line GOTO in the logarithmic growth period was poured in an amount of 2 ml each into polystyrene dishes (35 mm; made by Corning Co.) so that the cell concentration was 2 to 6×10^4 cells per dish, and the cells were cultured for 1 to 2 days in a carbon dioxide gas incubator containing 5% of carbon dioxide gas in air at 37° C. Then, the culture fluid was removed, and 2 ml of a fresh serum-free culture fluid (consisting of 50% of RPMI medium and 50% of MEM medium and containing penicillin G sodium and streptomycin sulfate in the same amounts as above) was added. At the same time, a presterilized PBS solution (phosphate buffered saline) of each of the test compounds in various concentrations was added to each of the dishes. After culturing for 24 hours, the number of living cells was counted. Furthermore, the culture was photographed, and from the photos, the number and length of neurites per cell were measured. The numer of living cells was counted for 3 to 6 dishes by resistance to staining with erythrosine dye. The number and length of the neurites were measured with regard to 6 photos (more than 200 cells per photo).

[6] = tested on: mouse neuroblastoma cell line neuro-2a; experiment: Activity on cell line neuro-2a (simple method); format: cell-based
Procedure: as §3, with “(I). […]” for “(I).”
As a simple method of evaluation, the number of cells have neurites with a length equal to, or larger than, the long diameter of the cell was divided by the total number of cells.

[7] = Table 3 Run No. 6, 0.1 mM, control 4.4 ± 0.9

CCn1cc(C=O)c2nc(N3CCNCC3)ncc2c1=O [Compound 744]
LD50 at 24 h [1]: 550 to 1000 mg/kg
Number of dead animals/number of test animals ([2]; Table 6, 500 mg/kg p.o.): 0/5
Number of dead animals/number of test animals ([2]; Table 6, 1000 mg/kg p.o.): 3/5

C/C1=C2/[N-][C@H]([C@H](CC(N)=O)[C@@]2(C)CCC(=O)NC[C@@H](C)OP(=O)([O-])O[C@H]2[C@@H](O)[C@@H](n3cnc4cc(C)c(C)cc43)O[C@@H]2CO)[C@]2(C)N=C(/C(C)=C3N=C(/C=C4N=C1[C@@H](CCC(N)=O)C\4(C)C)[C@@H](CCC(N)=O)[C@]\3(C)CC(N)=O)[C@@H](CCC(N)=O)[C@]2(C)CC(N)=O.[CH3-].[Co+3] [Mecobalamin, mecobalamin, reference compound]
Rate of recovery of the interdigit distance ([3]; 21st day, 0.5 mg/kg ip, saline 62.0 ± 2.4, ***P < 0.001): 79.1 ± 2.6%
Rate of recovery of the interdigit distance ([3]; 23rd day, 0.5 mg/kg ip, saline 71.1 ± 3.4, **P < 0.01): 88.3 ± 4.0%
interdigit distance, recovery versus saline ([3]; in words, 21st day): apparent tendency to quicker recovery
Rate of recovery in muscle weight ([3]; soleus muscle, 23rd day, 0.5 mg/kg ip, saline 51.8 ± 1.2): 55.0 ± 3.5%

Cn1[nH]c2nc(N3CCNCC3)ncc2c1=O [Compound 802]
Cells having neurites with a length at least twice the long diameter of cell/total number of cells [4, 7]: 7.5 ± 2.2%
Number of neurites/cell (mean ± S.D.) ([5]; Table 1, Run No. 7 by footnote, 10 μg/ml, control 1.77 ± 0.68): 2.02 ± 0.71 neurites/cell
Length of neurites (mean ± S.D.) ([5]; Table 1, Run No. 7 by footnote, 10 μg/ml, control 42.20 ± 17.75, all *P <0.01): 52.16 ± 19.79 μm/cell
Average of the proportions ([6]; Table 2 neuro-2a Run No. 2, 1 μg/ml, control 7.9): 19.68%
Average of the proportions ([6]; Table 2 neuro-2a Run No. 2, 10 μg/ml, control 7.9): 15.51%

c1ccc(CN2CCN(c3ncccn3)CC2)cc1 [Compound 132]
Number of dead animals/number of test animals ([2]; Table 7, 1000 mg/kg p.o.): 0/5
Cells having neurites with a length at least twice the long diameter of cell/total number of cells ([4]; Table 3 Run No. 1, 0.027 μM, control 2.2 ± 0.8): 4.2 ± 1.0%
Cells having neurites with a length at least twice the long diameter of cell/total number of cells ([4]; Table 3 Run No. 1, 0.27 μM, control 2.2 ± 0.8): 4.3 ± 1.2%
Cells having neurites with a length at least twice the long diameter of cell/total number of cells ([4]; Table 3 Run No. 1, 27 μM, control 2.2 ± 0.8): 4.3 ± 0.5%
Cells having neurites with a length at least twice the long diameter of cell/total number of cells ([4]; Table 3 Run No. 2, 0.1 mM, control 1.9 ± 0.9): 4.4 ± 0.7%
Cells having neurites with a length at least twice the long diameter of cell/total number of cells ([4]; Table 3 Run No. 2, 0.3 mM, control 1.9 ± 0.9): 11.2 ± 1.3%
Cells having neurites with a length at least twice the long diameter of cell/total number of cells ([4]; Table 3 Run No. 2, 1 mM, control 1.9 ± 0.9): 9.1 ± 3.0%
Number of neurites/cell (mean ± S.D.) ([5]; Table 1 Run No. 5, 1 μg/ml, control 1.96 ± 0.64): 1.95 ± 0.46 neurites/cell
Number of cells (mean ± S.E.) ([5]; Table 1 Run No. 5, 1 μg/ml): 5.63 ± 0.68 × 10^4 /dish
Length of neurites (mean ± S.D.) ([5]; Table 1 Run No. 5, 1 μg/ml, control 46.41 ± 33.28): 52.61 ± 32.09 μm/cell
Number of neurites/cell (mean ± S.D.) ([5]; Table 1 Run No. 5, 10 μg/ml, control 1.96 ± 0.64): 2.03 ± 0.63 neurites/cell
Number of cells (mean ± S.E.) ([5]; Table 1 Run No. 5, 10 μg/ml): 6.26 ± 0.27 × 10^4 /dish
Length of neurites (mean ± S.D.) ([5]; Table 1 Run No. 5, 10 μg/ml, control 46.41 ± 33.28): 52.85 ± 30.00 μm/cell

O=C1NCc2nc(N3CCNCC3)ncc21 [Compound 620]
Number of dead animals/number of test animals ([2]; Table 7, 1000 mg/kg p.o.): 0/5
Cells having neurites with a length at least twice the long diameter of cell/total number of cells [4, 7]: 7.2 ± 0.3%
Cells having neurites with a length at least twice the long diameter of cell/total number of cells ([4]; Table 3 Run No. 6, 1 mM, control 4.4 ± 0.9): 10.5 ± 3.2%
Cells having neurites with a length at least twice the long diameter of cell/total number of cells ([4]; Table 3 Run No. 6, 3 mM, control 4.4 ± 0.9): 20.7 ± 2.5%
Cells having neurites with a length at least twice the long diameter of cell/total number of cells ([4]; Table 3 Run No. 9, 0.3 mM, control 2.0 ± 1.0): 6.2 ± 1.5%
Cells having neurites with a length at least twice the long diameter of cell/total number of cells ([4]; Table 3 Run No. 9, 1 mM, control 2.0 ± 1.0): 11.3 ± 3.3%
Cells having neurites with a length at least twice the long diameter of cell/total number of cells ([4]; Table 3 Run No. 9, 3 mM, control 2.0 ± 1.0): 19.6 ± 0.5%
Average of the proportions ([6]; Table 2 neuro-2a Run No. 3, 0.01 μg/ml, control 2.0): 13.01%
Average of the proportions ([6]; Table 2 neuro-2a Run No. 3, 0.1 μg/ml, control 2.0): 15.46%
Average of the proportions ([6]; Table 2 neuro-2a Run No. 3, 1 μg/ml, control 2.0): 9.8%

O=C1CCCc2nc(N3CCNCC3)ncc2N1 [Compound 502]
Number of dead animals/number of test animals ([2]; Table 7, 1000 mg/kg p.o.): 0/5
Cells having neurites with a length at least twice the long diameter of cell/total number of cells ([4]; Table 3 Run No. 8, 0.3 mM, control 3.7 ± 0.4): 5.5 ± 2.0%
Cells having neurites with a length at least twice the long diameter of cell/total number of cells ([4]; Table 3 Run No. 8, 1 mM, control 3.7 ± 0.4): 7.8 ± 1.2%
Length of neurites (mean ± S.D.) ([5]; Table 1, Run No. 7 by footnote, 1 μg/ml, control 42.20 ± 17.75, all *P <0.01): 52.24 ± 23.92 μm/cell
Number of neurites/cell (mean ± S.D.) ([5]; Table 1, last control group (Run No. 7 by footnote), 1 μg/ml, control 1.77 ± 0.68): 1.99 ± 0.65 neurites/cell
